What was measured:
[1] = mouse, in vivo; cited from earlier work
[2] = Single dose pharmacokinetic study after peroral ciclopirox olamine; type: in vivo, BALB/c mice; conditions: 100 mg/kg oral gavage
Method: Single dose pharmacokinetic study after peroral treatment with ciclopirox Olamine. Six week old BALB/c mice were treated with 100 mg/kg ciclopirox olamine by oral gavage. This is well below the oral toxicity level in mice of 1740 mg/kg (Spectrum Chemicals MSDS). At 15 min, 30 min, 1 h, 3 h and 5 h post-treatment, blood was collected from pairs of mice and the serum separated. Mice were then euthanized and trigeminal ganglia (TG), brainstems and corneas were dissected and frozen until tissue extraction was performed and the extracts analyzed by mass spectroscopy. Standardization to ciclopirox olamine was achieved using compound spiked into a matrix of relevant tissue homogenate from untreated mice.
Ciclopirox olamine tissue concentrations (μM) after oral gavage. Ciclopirox olamine has previously been used to treat mice by oral gavage (25 to 40 mg/kg) for up to 60 days, but, assessment of penetration into the cornea and nervous system after oral gavage needed to be evaluated as well as tissue concentration over time to estimate appropriate dosing. In a single dose pharmacokinetic study, mice were treated with 100 mg/kg ciclopirox olamine by oral gavage. Pairs of mice were euthanized at various times post-treatment. Ciclopirox olamine concentrations in plasma, corneas, trigeminal ganglia and brainstems were determined by mass spectroscopy (FIG. 10). […] Ciclopirox olamine concentrations in cornea and nervous system tissues were only ˜5-fold lower than that in the plasma and remained above the estimated EC90 until 5 hours post-treatment.

HSV-1 = assay: Topical treatment of mice infected with HSV-1 on the cornea; type: in vivo; conditions: summary statement
Method: Compounds were administered at 1 μg/eye in 10% DMSO. Two mice were treated with 10% DMSO as a negative control. The corneal surface was swabbed once per day on days 1, 2, 4 and 5 post-infection and titer of virus shed from the epithelium was determined by standard plaque assay. On the fifth day post-infection mice were euthanized and the trigeminal ganglia (TG) and brainstems were dissected. The tissues were disrupted and virus in them quantified by plaque assay. […] Weight of individual mice was recorded daily. […] Saline was a negative control. On the fifth day post-infection mice were euthanized and the trigeminal ganglia (TG) and brainstems were dissected. The tissues were disrupted and virus in them quantified by plaque assay.
Body weight was monitored daily post-infection as a sensitive indicator of overall health (FIG. 12).
Infected mice treated with saline served as a negative control.

[3] = Neutral red cytotoxicity assay in uninfected HFFs (14 day, with CPE assay); type: cell-based, human; conditions: human, uninfected human foreskin fibroblasts (HFFs)
Method: (§1) Anti-HCMV CPE inhibition and cytotoxicity assays. HFFs were infected with HCMV strain AD169 in the presence of serial dilutions of the compounds from 0.0192 to 60 μM. Fourteen days later the monolayers were stained with crystal violet, and retained cell density was quantified using a multiplate autoreader (BioTek). Cytotoxicity was measured the same way, except that the cells were uninfected and neutral red internalization by viable cells was measured.
(§2) Antiviral efficacy against HCMV. The ability of select HSV inhibitors to inhibit replication of another major human herpesvirus pathogen, human cytomegalovirus (HCMV) (65) was tested. This was based on the inhibitors strong suppression of HSV-1 and HSV-2 and the prediction that other members of the herpesvirus family would be sensitive to NTS inhibitors due to their shared DNA replication mechanism. Compounds #41, 46, 49, 55, 56, and 59 and the FDA-approved anti-HCMV drug ganciclovir were evaluated with crystal violet CPE and neutral red toxicity assays in HFFs. HFFs were infected with HCMV in the presence of serial dilutions of the compounds that were most inhibitory for HSVs. After 14 days the monolayers were stained and cell density was determined by OD reading. Compound cytotoxicity for uninfected cells was determined in the same manner except that neutral red uptake by viable cells was measured. […] The TI values for the four NTS inhibitors of HCMV ranged from 4 for compound #41 to 38 for #56. Therefore, NTS inhibitors can suppress HCMV replication in addition to inhibiting the HSVs.

HCMV strain AD169 [4] = assay: HCMV plaque reduction assay in HFFs; type: cell-based, human cytomegalovirus; conditions: Human betaherpesvirus 5, AD169, 240 h, 10 days, read-out: EC50 against HCMV, plaque reduction assay
Method: (§3) HCMV plaque reduction EC50 and toxicity assays. Low passage primary HFFs were infected with HCMV strain AD169 in the presence of serial dilutions of the compounds from 0.032 to 100 μM. Ten days later the monolayers were stained with 1% neutral red solution in PBS. After rinsing, plaques were counted using a stereomicroscope and the EC50 was interpolated from the data. Cytotoxicity was measured using a plate-based assay in which compounds were added to HFFs at 0.032 to 100 μM. At the end of the incubation period, plates were stained for 1 h with a neutral red solution in PBS. The stain was then removed, the plates rinsed in PBS and dried, and dye internalized by viable cells was determined at OD550. CC50 values were interpolated from the data.
(§4) Compounds #41, 46, 49, 55, 56, and 59 and the FDA-approved, anti-HCMV drug ganciclovir were subsequently evaluated with plaque reduction and toxicity assays in HFFs. HFFs were infected with HCMV in the presence of serial dilutions of the compounds. After 10 days the cultures were stained with neutral red and plaques were counted. Compound cytotoxicity for uninfected cells was determined in the same manner except that neutral red uptake by viable cells was measured by optical density. […] The TI values for the five NTS inhibitors of HCMV ranged from 5 for compound #46 to 17 for #55 and 59. Therefore, NTS inhibitors can suppress HCMV replication in addition to inhibiting the HSVs.

HCMV strain AD169 [5] = assay: Anti-HCMV CPE inhibition assay (crystal violet) in HFFs; type: cell-based, human cytomegalovirus; conditions: Human betaherpesvirus 5, AD169, 336 h, 14 days, read-out: EC50 against HCMV, CPE inhibition assay
Method: as §1, §2

[6] = Neutral red cytotoxicity assay in HFFs (10 day, with plaque reduction assay); type: cell-based, human; conditions: human, uninfected primary human foreskin fibroblasts (HFFs), 10 day assay
Method: as §3, §4

Question: For `Cc1cc(C2CCCCC2)n(O)c(=O)c1` [Compound 41-E, Ciclopirox ethanolamine], which “Oral toxicity level in mice” value [1] is on record?
Answer: Its value is 1740 mg/kg.

Question: What about the “Concentrations in cornea and nervous system tissues, fold lower than plasma” value [2] of the same compound?
Answer: Its value is ~5 fold.

Question: What about the “Plasma concentration at time of uptake” value [2] of the same compound?
Answer: Its value is ~30 µM.

Question: What about the “Free plasma concentration after 5 hours, fold above the estimated EC90 against HSV-1” value ([2]; 5 hours) of the same compound?
Answer: Its value is 10 fold.

Question: What about the “Overall health of mice as shown by maintenance of body weight” value (HSV-1) of the same compound?
Answer: Its value is “significantly improved the overall health”.

Question: For `Nc1nc(O)c2ncn(COC(CO)CO)c2n1` [Ganciclovir, reference compound], which CC50 at 14 days [3] is on record?
Answer: Its CC50 at 14 days is > 300 µM.

Question: What about the EC50 (HCMV strain AD169 [4]) of the same compound?
Answer: The EC50 was 3.2 µM.

Question: What about the EC50 (HCMV strain AD169 [5]) of the same compound?
Answer: The EC50 was 0.33 µM.

Question: And the CC50 at 10 days [6]?
Answer: Its CC50 at 10 days is > 100 µM.

Reference: patent publication US10463664B2, “Inhibitors of HSV nucleotidyl transferases and uses therefor” (Saint Louis University, priority 2013, dated 2019)
